Data as given in ChEMBL document CHEMBL2095176, “GSK Tuberculosis Screening Data”.
Values after ≈ are worked out from the molar mass of the structure shown.

Test system: Mycobacterium tuberculosis variant bovis BCG
Experiment: microbe, parasite or virus in culture
Assay type: functional

Row | Compound | MIC90 [µM]
1 | Cn1nc(C(=O)N2CCc3sccc3C2c2cccs2)c2ccccc2c1=O (stereo unspecified) | 4.6 (≈ 1.87 µg/mL)
2 | Cc1ccc(Nc2ccc(C(=O)O)cc2N)cc1 | 7.9 (≈ 1.91 µg/mL)
3 | Cc1cc(C(=O)Nc2nc(-c3ccccn3)cs2)no1 | 4.6 (≈ 1.32 µg/mL)
4 | CSc1ncc(C(=O)Nc2nc(-c3ccc(Cl)cc3)cs2)cn1 | 3.3 (≈ 1.2 µg/mL)
5 | C=CCNCCS(=O)(=O)c1cccc(Nc2ncc(-c3ccc(OC)nc3)cn2)c1 | 3.6 (≈ 1.53 µg/mL)
6 | CCc1c(C)nc(-n2nc(C)cc2NC(=O)COc2ccccc2F)[nH]c1=O | 2.8 (≈ 1.08 µg/mL)
7 | O=C(CCc1nc2ccccc2oc1=O)N[C@@H]1CCC(=O)N[C@H]1c1ccsc1 | 6.4 (≈ 2.54 µg/mL)
8 | O=C(c1cccc(-n2cnnn2)c1)N1CCCCC1c1nc2ccccc2s1 (stereo unspecified) | 8 (≈ 3.12 µg/mL)
9 | CCCOc1c(Br)cc(CNCC)cc1OCC | 7.8 (≈ 2.47 µg/mL)
10 | Cc1ccc2nc(C(F)(F)F)c(C(=O)NCc3ncc(C(F)(F)F)cc3Cl)n2c1 | 9.9 (≈ 4.32 µg/mL)
11 | CCOc1ccc(-n2nc3c(C)nnc(NCc4ccccc4)c3c2C)cc1 | 4.8 (≈ 1.79 µg/mL)
12 | Cc1ccc2nc(C(F)(F)F)c(C(=O)NCc3cc(Cl)cc(Cl)c3)n2c1 | 0.6 (≈ 0.241 µg/mL)
13 | Cc1ccc2nc(C)c(C(=O)NCc3ccco3)n2c1 | 1 (≈ 0.269 µg/mL)
14 | CC(C)c1ccc(NC(=O)c2ccc(C(=O)NC3CCCNC3)cc2)cc1 (stereo unspecified) | 6.2 (≈ 2.27 µg/mL)
15 | O=C(Nc1nc(-c2ccccn2)cs1)c1cccc(Oc2ccccc2)c1 | 3.4 (≈ 1.27 µg/mL)
16 | CCc1c(C)nc(-n2nc(C)cc2NC(=O)CCc2ccccc2)[nH]c1=O | 3.8 (≈ 1.39 µg/mL)
17 | O=C(Nc1nc(-c2ccccn2)cs1)c1ccc(-c2ccccc2F)o1 | 5.2 (≈ 1.9 µg/mL)
18 | CN(C)S(=O)(=O)c1ccc(C(=O)Nc2nnc(-c3ccc(Br)cc3)o2)cc1 | 8 (≈ 3.61 µg/mL)
19 | O=C(Nc1nc(-c2ccccn2)cs1)c1cc2ccccc2o1 | 7 (≈ 2.25 µg/mL)

Row | Compound | MIC90 [µM]
20 | c1cncc(NCc2ccc(-c3cc4ccncc4cc3OC3CCNCC3)s2)c1 | 8.3 (≈ 3.46 µg/mL)
21 | COc1cc(OC)cc(C(=O)Nc2nc(-c3ccccn3)cs2)c1 | 3.4 (≈ 1.16 µg/mL)
22 | COc1ccc(-c2cc(=O)c3cc(OCC(=O)OC(C)C)ccc3o2)cc1 | 6.2 (≈ 2.28 µg/mL)
23 | Nc1cc(-c2ccc(Cl)cc2)nn1-c1cccc(C(=O)NCC2CC(=O)N(c3ccccc3)C2)c1 (stereo unspecified) | 5.9 (≈ 2.87 µg/mL)
24 | c1ncn(-c2ccc(COc3ccc(-n4cncn4)cc3)cc2)n1 | 6.8 (≈ 2.16 µg/mL)
25 | O=C(Nc1nc(-c2ccccn2)cs1)c1ccc(-c2ccc(F)cc2)s1 | 3.6 (≈ 1.37 µg/mL)
26 | O=C(NC1CCN(Cc2ccc(F)cc2)C1)c1sccc1-c1cccc(Cl)c1 (stereo unspecified) | 7 (≈ 2.9 µg/mL)
27 | O=C(Nc1nnc(SCc2ccc(F)cc2)s1)c1ccccn1 | 4.6 (≈ 1.59 µg/mL)
28 | c1csc(Cc2nn3c(-c4n[nH]c5c4CCC5)nnc3s2)c1 | 3.2 (≈ 1.05 µg/mL)
29 | O=c1nc(Oc2ccccc2)c(F)c[nH]1 | 4.2 (≈ 0.866 µg/mL)
30 | O=S(=O)(NCC1CCCO1)c1ccc(-c2ccc(CN3CCOCC3)cc2)s1 (stereo unspecified) | 4.1 (≈ 1.73 µg/mL)
31 | O=c1oc2ccccc2nc1CS(=O)(=O)c1ccc(Br)cc1 | 4.7 (≈ 1.79 µg/mL)
32 | FC(F)(F)c1ccc2c(N3CCNCC3)ncc(-c3ccsc3)c2n1 | 9.4 (≈ 3.43 µg/mL)
33 | COc1ccc(-c2nsc(SCC(=O)N3CCCC3)n2)cc1 | 5.6 (≈ 1.88 µg/mL)
34 | COCCCNC(=N)c1ccc(NC(=O)c2ccc(C(=O)Nc3ccc(C(=N)NCCCOC)cc3)cc2)cc1 | 0.5 (≈ 0.272 µg/mL)
35 | C=CCn1c(Sc2ccnc(N3CCN(c4ccncc4)CC3)n2)nnc1C(N)=O | 3.3 (≈ 1.4 µg/mL)
36 | CC(C)NCc1ccc(-c2ccc(NS(=O)(=O)c3ccc(F)cc3)cc2)cc1 | 3.6 (≈ 1.43 µg/mL)
37 | Cc1ccc(-n2ncc3c(SCC(=O)NNC(=O)c4ccco4)ncnc32)cc1 | 3.6 (≈ 1.47 µg/mL)
38 | Cc1cc(=O)[nH]c(-n2nc(C)cc2NC(=O)COc2ccccc2C)n1 | 6.9 (≈ 2.44 µg/mL)

Row | Compound | MIC90 [µM]
39 | Cc1cnc(N2CCN[C@@H](Cc3ccccc3)C2)nc1Oc1ccc(-n2ccnc2)cc1.O=C(O)C(F)(F)F | 8.1
40 | Cc1ccc(-c2ccc(SCC(=O)Nc3nonc3C)nn2)cc1 | 6.8 (≈ 2.32 µg/mL)
41 | Oc1ccc(CCNc2nc(NCc3cccc4ccccc34)nc(NC3CCNCC3)n2)cc1 | 10 (≈ 4.7 µg/mL)
42 | COc1ccc(S(=O)(=O)N(C)C)cc1C(=O)N[C@H]1CCN2CC(c3ccccc3)C[C@H]2C1 (stereo partly specified) | 0.4 (≈ 0.183 µg/mL)
43 | COc1ccc(-c2cnc(Nc3cccc(S(=O)(=O)CCN4CCc5ccccc5C4)c3)nc2)cn1 | 5.7 (≈ 2.86 µg/mL)
44 | Cc1n[nH]c(C)c1S(=O)(=O)Nc1ccc2c[nH]nc2c1 | 6.2 (≈ 1.81 µg/mL)
45 | CCCCOc1ccc(C(=O)Nc2nc(-c3ccccn3)cs2)cc1 | 1.6 (≈ 0.566 µg/mL)
46 | O=C(NCCCn1nc(Cl)c(N2CCCNCC2)cc1=O)c1ccc(-c2ccccc2)cc1 | 10 (≈ 4.66 µg/mL)
47 | Cc1ccc(C(=O)Nc2nnc(-c3ccccc3Cl)o2)cc1 | 6.1 (≈ 1.91 µg/mL)
48 | CCC1=NN(C(=O)c2ccncc2)C(O)(c2ccncc2)C1 (stereo unspecified) | 6.9 (≈ 2.04 µg/mL)
49 | N#Cc1nc(-c2ccccc2F)oc1NCCc1ccccc1 | 7.9 (≈ 2.43 µg/mL)
50 | NC(=O)c1cnc2ccc(S(=O)(=O)c3ccccc3)cc2c1Nc1ccc(O)c(F)c1 | 7.5 (≈ 3.28 µg/mL)
51 | COc1ccc2sc(Nc3nc(C)n(-c4ccccc4)c(=O)n3)nc2c1 | 9.5 (≈ 3.47 µg/mL)
52 | O=C(C=Cc1cccs1)N1CCN(Cc2ccc(Br)s2)CC1 | 2.8 (≈ 1.11 µg/mL)
53 | CS(=O)(=O)c1ccc(C(=O)Nc2nc(-c3ccccn3)cs2)cc1 | 3.6 (≈ 1.29 µg/mL)
54 | O=C(Nc1nnc(-c2ccccc2)o1)c1ccc(Cl)s1 | 9.8 (≈ 3 µg/mL)
55 | Clc1ccc2c(N3CCNCC3)ccnc2c1 | 6.5 (≈ 1.61 µg/mL)
56 | CCOc1cc(OC)c(C(=O)Nc2cccc3c2CCNC3C)cc1Cl (stereo unspecified) | 3.7 (≈ 1.39 µg/mL)
